Test results: patent publication US9834514B2, “Antibiotic sensitivity-restoring and photosensitive agents” (New Mexico Tech Research Foundation, priority 2015, dated 2017)
Values after ≈ are worked out from the molar mass of the structure shown. Like-named read-outs stand apart in the source and are kept apart here.

Assays:
[1] = test system: Klebsiella pneumoniae (CRE, ATCC BAA-1705); assay: Time-dependent colony counts of CRE with compounds and PME; assay type: cell-based; settings: PME 0.2 μg/mL, compound 20 μM; FIGS. 48, 49
Protocol: The MICs of PME and compounds 8-11 were determined against Klebsiella pneumoniae (CRE, ATCC BAA-1705). […] […] At specific time points, the samples were taken and diluted ten-fold in media. Ten microliters of each dilution was then drip-streaked onto an agar plate and incubated overnight at 37° C. Colony counts were then performed and the CFU/mL were calculated.

[2] = MIC against MRSA isolates; assay type: cell-based, S. aureus; settings: Staphylococcus aureus
In short: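 Broth microdilution in TSB, ~5×10^5 CFU/mL, two-fold dilutions from 100 μM, overnight at 37 °C shaking 100 rpm.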

[3] = test system: VRE; assay: MIC against VRE; assay type: cell-based, Enterococcus faecalis; settings: Enterococcus, TABLE 23, read-out: VRE MIC
Protocol: In a 12×75 mm borosilicate glass culture tube, 1 mL of cell suspension was added. Then, compound 7 was added to the cells, and the samples were mixed using a vortex mixer. […] The samples were incubated overnight at 37° C. on a rotary shaking incubator at 100 rpm.

[4] = test system: HeLa cells; assay: Toxicity (IC50) on HeLa cells; assay type: cell-based, human; settings: Homo sapiens; cancerous cervical epithelium HeLa cells
Protocol: The toxicities of the compounds of the invention were determined for human cancerous cervical epithelium HeLa and normal lung fibroblast WI38 cells. The toxicities of EPIs INF-55 and INF-55Cl were quantified as controls. […] TABLE 2 compares the toxicity of compounds 7-11 on HeLa cells and normal WI38 cells.

[5] = test system: MRSA; assay: Resensitization to antibiotics (log reduction, TABLE 29); assay type: cell-based, S. aureus; settings: compound 5 μM
[6] = test system: MRSA isolates (S. aureus ATCC 33591, BAA-44, BAA-1707, BAA-1717, BAA-1720, BAA-1747, BAA-1754, BAA-1761, BAA-1763, BAA-1764, BAA-1766); assay: Combination effects of compounds 7-11 and antibiotics on MRSA isolates (turbidity); assay type: cell-based
Text: Inhibition resulting from co-treatment of a broth suspension with a compound of the invention and an antibiotic was compared to broth suspensions subjected to each individual treatment. A visual observation of inhibition with the unaided eye upon co-treatment of the broth suspensions, based on turbidity, was considered synergistic.
Exceptions to reading complete inhibition of growth included Gram-positive cocci. For Gram-positive cocci, trailing growth was observed. For these species, the MICs were read at the first spot where trailing was observed, and tiny buttons of growth were ignored. […]
Two-fold dilutions of the antibiotics were prepared in a liquid growth medium dispensed in test tubes. […] The antibiotic-containing tubes were inoculated with a standard bacterial suspension of 5×10^5 CFU/mL. Following an overnight incubation (16-20 hrs) at 35±2° C. under ambient air, the tubes were examined for visible bacterial growth based on turbidity. The lowest concentration of antibiotic that prevented growth was determined to be the MIC. An incubation time of 24 hrs was used to determine the MICs of oxacillin and vancomycin.

Brc1ccc(/N=N/c2c[nH]c3ccccc23)cc1 [Compound 8]
CRE colony populations on simultaneous treatment with PME [1]: reduced the CRE colony populations to sterility
MIC ([2]; MRSA (ATCC BAA-44), TABLE 21, read-out: MRSA MIC): 15 µM (≈ 4.5 µg/mL)
MIC ([2]; MRSA isolate ATCC 33591, read-out: MIC): 3.1 to 6.3 µM (≈ 0.93 to 1.89 µg/mL)
MIC ([2]; MRSA isolate ATCC BAA-44, read-out: MIC): 15 µM (≈ 4.5 µg/mL)
MIC ([2]; MRSA isolate ATCC BAA-1707, read-out: MIC): 6.3 µM (≈ 1.89 µg/mL)
MIC ([2]; MRSA isolate ATCC BAA-1717, read-out: MIC): 6.3 µM (≈ 1.89 µg/mL)
MIC ([2]; MRSA isolate ATCC BAA-1720, read-out: MIC): 6.3 µM (≈ 1.89 µg/mL)
MIC ([2]; MRSA isolate ATCC BAA-1747, read-out: MIC): 6.3 µM (≈ 1.89 µg/mL)
MIC ([2]; MRSA isolate ATCC BAA-1754, read-out: MIC): 12.5 µM (≈ 3.75 µg/mL)
MIC ([2]; MRSA isolate ATCC BAA-1761, read-out: MIC): 12.5 µM (≈ 3.75 µg/mL)
MIC ([2]; MRSA isolate ATCC BAA-1763, read-out: MIC): 6.3 µM (≈ 1.89 µg/mL)
MIC ([2]; MRSA isolate ATCC BAA-1764, read-out: MIC): 12.5 µM (≈ 3.75 µg/mL)
MIC ([2]; MRSA isolate ATCC BAA-1766, read-out: MIC): 12.5 µM (≈ 3.75 µg/mL)
MIC [3]: 2 µM (≈ 0.6 µg/mL)
IC50 [4]: 31.6 µM
Log Reduction ([5]; Norfloxacin (25 μg/mL)): 2-3
Log Reduction ([5]; Oxacillin (50 μg/mL)): 3-4
combination effect with Gentamycin ([6]; MRSA ATCC 33591): No Synergy
combination effect with Norfloxacin ([6]; MRSA ATCC 33591): No Synergy
combination effect with Oxacillin ([6]; MRSA ATCC 33591): No Synergy
combination effect with Tetracycline ([6]; MRSA ATCC 33591): No Synergy
combination effect with Vancomycin ([6]; MRSA ATCC 33591): Susceptible
combination effect with Norfloxacin ([6]; MRSA ATCC BAA-44): No Synergy
combination effect with Oxacillin ([6]; MRSA ATCC BAA-44): No Synergy
combination effect with Tetracycline ([6]; MRSA ATCC BAA-44): Susceptible
combination effect with Vancomycin ([6]; MRSA ATCC BAA-44): Susceptible
combination effect with Gentamycin ([6]; MRSA ATCC BAA-1707): Susceptible
combination effect with Norfloxacin ([6]; MRSA ATCC BAA-1707): Susceptible
combination effect with Oxacillin ([6]; MRSA ATCC BAA-1707): Susceptible
combination effect with Tetracycline ([6]; MRSA ATCC BAA-1707): No Synergy
combination effect with Vancomycin ([6]; MRSA ATCC BAA-1707): Susceptible
combination effect with Gentamycin ([6]; MRSA ATCC BAA-1717): Susceptible
combination effect with Norfloxacin ([6]; MRSA ATCC BAA-1717): Susceptible
combination effect with Oxacillin ([6]; MRSA ATCC BAA-1717): Synergy
combination effect with Tetracycline ([6]; MRSA ATCC BAA-1717): Susceptible
combination effect with Vancomycin ([6]; MRSA ATCC BAA-1717): Susceptible
combination effect with Gentamycin ([6]; MRSA ATCC BAA-1720): Susceptible
combination effect with Norfloxacin ([6]; MRSA ATCC BAA-1720): No Synergy
combination effect with Oxacillin ([6]; MRSA ATCC BAA-1720): Synergy
combination effect with Tetracycline ([6]; MRSA ATCC BAA-1720): Susceptible
combination effect with Vancomycin ([6]; MRSA ATCC BAA-1720): Susceptible
combination effect with Gentamycin ([6]; MRSA ATCC BAA-1747): Susceptible
combination effect with Norfloxacin ([6]; MRSA ATCC BAA-1747): Susceptible
combination effect with Oxacillin ([6]; MRSA ATCC BAA-1747): Susceptible
combination effect with Tetracycline ([6]; MRSA ATCC BAA-1747): Susceptible
combination effect with Vancomycin ([6]; MRSA ATCC BAA-1747): Susceptible
combination effect with Gentamycin ([6]; MRSA ATCC BAA-1754): Susceptible
combination effect with Norfloxacin ([6]; MRSA ATCC BAA-1754): Susceptible
combination effect with Oxacillin ([6]; MRSA ATCC BAA-1754): Synergy
combination effect with Tetracycline ([6]; MRSA ATCC BAA-1754): Susceptible
combination effect with Vancomycin ([6]; MRSA ATCC BAA-1754): Susceptible
combination effect with Gentamycin ([6]; MRSA ATCC BAA-1761): Susceptible
combination effect with Norfloxacin ([6]; MRSA ATCC BAA-1761): No Synergy
combination effect with Oxacillin ([6]; MRSA ATCC BAA-1761): Susceptible
combination effect with Tetracycline ([6]; MRSA ATCC BAA-1761): Susceptible
combination effect with Vancomycin ([6]; MRSA ATCC BAA-1761): Susceptible
combination effect with Gentamycin ([6]; MRSA ATCC BAA-1763): Susceptible
combination effect with Norfloxacin ([6]; MRSA ATCC BAA-1763): No Synergy
combination effect with Oxacillin ([6]; MRSA ATCC BAA-1763): Synergy
combination effect with Tetracycline ([6]; MRSA ATCC BAA-1763): Susceptible
combination effect with Vancomycin ([6]; MRSA ATCC BAA-1763): Susceptible
combination effect with Gentamycin ([6]; MRSA ATCC BAA-1764): Susceptible
combination effect with Norfloxacin ([6]; MRSA ATCC BAA-1764): Susceptible
combination effect with Oxacillin ([6]; MRSA ATCC BAA-1764): Synergy
combination effect with Tetracycline ([6]; MRSA ATCC BAA-1764): Susceptible
combination effect with Vancomycin ([6]; MRSA ATCC BAA-1764): Susceptible
combination effect with Gentamycin ([6]; MRSA ATCC BAA-1766): Susceptible
combination effect with Norfloxacin ([6]; MRSA ATCC BAA-1766): Susceptible
combination effect with Oxacillin ([6]; MRSA ATCC BAA-1766): Synergy
combination effect with Tetracycline ([6]; MRSA ATCC BAA-1766): Susceptible
combination effect with Vancomycin ([6]; MRSA ATCC BAA-1766): Susceptible
